Test results: PubChem BioAssay (NCI)
Several values for one entry are separate records, joined by “and”; a condition that tells them apart may be missing. Identical values can stand only once.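 96-well plates; 48 h exposure; 5 concentrations. Endpoints by linear interpolation between flanking doses. Not reached: highest tested concentration assigned. Here, GI50 denotes the concentration required for 50% inhibition of growth. At the TGI there is no net growth.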

Legend:
Assay in all cases: NCI-60 cell line screen, 48 h
BT-549 breast = test system: BT-549 breast
HT29 colon = test system: HT29 colon
K-562 leukemia = test system: K-562 leukemia
KM12 colon = test system: KM12 colon
MALME-3M melanoma = test system: MALME-3M melanoma
NCI-H23 lung = test system: NCI-H23 lung
OVCAR-8 ovarian = test system: OVCAR-8 ovarian
RPMI-8226 leukemia = test system: RPMI-8226 leukemia
SR leukemia = test system: SR leukemia
SW-620 colon = test system: SW-620 colon

Row | Compound | GI50 (BT-549 breast) | TGI (BT-549 breast) | GI50 (HT29 colon) | TGI (HT29 colon) | GI50 (K-562 leukemia) | TGI (K-562 leukemia) | GI50 (KM12 colon) | TGI (KM12 colon) | GI50 (MALME-3M melanoma) | TGI (MALME-3M melanoma) | GI50 (NCI-H23 lung) | TGI (NCI-H23 lung) | GI50 (OVCAR-8 ovarian) | TGI (OVCAR-8 ovarian) | GI50 (RPMI-8226 leukemia) | TGI (RPMI-8226 leukemia) | GI50 (SR leukemia) | TGI (SR leukemia) | GI50 (SW-620 colon) | TGI (SW-620 colon)
1 | Brc1c[n+](Cc2ccc3ccccc3c2)cn1Cc1ccc2ccccc2c1 | 1.69 µM | 3.18 µM | 1.19 µM | 3.35 µM | 1.84 µM | 10.6 µM | 1.67 µM | 3.28 µM | 1.22 µM | 2.71 µM | 1.35 µM | 3.18 µM | 1.89 µM | 4.55 µM | 1.02 µM | 3.06 µM | 1.17 µM | 5.11 µM | 1.61 µM | 3.62 µM
2 | CN(C(=O)c1ccc(F)cc1C(F)(F)F)C1CCN(c2nnc(-c3ccnn3C)c3ccccc23)CC1 | 33.3 µM | > 100 µM | 55.5 µM | > 100 µM | 27.3 µM | > 100 µM | 52.8 µM | > 100 µM | 23.6 µM | > 100 µM | 29.3 µM | > 100 µM | 30.5 µM | > 100 µM | 19.1 µM | > 100 µM | 50.9 µM | > 100 µM | > 100 µM | > 100 µM
3 | COc1cc(-c2c3c(cn2S(=O)(=O)c2ccccc2)-c2nc(N)sc2CC3)cc(OC)c1OC | 2.75 µM | 43.1 µM | 0.384 µM | 3.44 µM | 0.431 µM | > 100 µM | 0.722 µM | > 100 µM | 0.449 µM | 38 µM | 4.29 µM | > 100 µM | 2.4 µM | 29.2 µM | 0.79 µM | 56 µM | 0.35 µM | 15.6 µM | 0.39 µM | > 100 µM
4 | C=C1C(=O)O[C@H]2[C@H]1CC/C(COC(=O)OCCCCCOC(=O)OC/C1=C/CC[C@@]3(C)O[C@H]3[C@H]3OC(=O)C(=C)[C@@H]3CC1)=C\CC[C@@]1(C)O[C@@H]21 | 0.182 µM | 0.437 µM | 0.242 µM | 0.726 µM | 0.267 µM | 1.08 µM | 1.51 µM | 3.31 µM | 0.285 µM | 0.878 µM | 0.674 µM | 2.37 µM | 0.331 µM | 0.998 µM | 0.359 µM | 1.47 µM | 0.208 µM | 0.744 µM | 0.285 µM | 0.902 µM
5 | CCCC[C@@H]1NC(=O)[C@H](CCCCN)NC(=O)[C@H](CCCNC(=N)N)NC(=O)[C@H](CC(C)C)NC(=O)[C@@H](NC(=O)[C@H](Cc2cccc(Cl)c2)NC(=O)[C@@H]2CCCN2C(=O)[C@@H](NC(C)=O)C(C)C)CCSSC[C@@H](C(=O)N[C@@H](CCCCN)C(=O)N2CCC[C@H]2C(=O)N2CCC[C@H]2C(=O)N[C@@H](CCC(=O)O)C(N)=O)NC(=O)[C@H](Cc2ccccc2)NC(=O)[C@H](CO)NC(=O)[C@H](C)NC(=O)[C@@H]2CCCN2C1=O | > 50 µM | > 50 µM | > 50 µM | > 50 µM | > 50 µM | > 50 µM | > 50 µM | > 50 µM | > 50 µM | > 50 µM | > 50 µM | > 50 µM | > 50 µM | > 50 µM | > 50 µM | > 50 µM | > 50 µM | > 50 µM | > 50 µM | > 50 µM
6 | CC1(C)CCC(S(=O)(=O)c2ccc3c(c2)/C(=N\O)c2cc(S(=O)(=O)N4CCC(O)(c5cccc(C(F)(F)F)c5)CC4)ccc2-3)CC1 | 0.054 µM | 0.226 µM | 0.0257 µM | 0.0723 µM | 0.0219 µM | 0.0492 µM | 0.0217 µM | 0.0503 µM | 0.0216 µM | 0.053 µM | 0.118 µM | 1.37 µM | 0.034 µM | 0.112 µM | 0.0255 µM | 0.09 µM | 0.0174 µM | 0.0443 µM | 0.0154 µM | 0.0319 µM
7 | O=C(Cn1ccnc1[N+](=O)[O-])N(CCO)CCO |  | > 250 µM | > 1250 µM | > 1250 µM | > 1250 µM | > 1250 µM | > 1250 µM | > 1250 µM | > 1250 µM | 224 µM and > 1250 µM | > 1250 µM | > 1250 µM | > 1250 µM | > 1250 µM | > 1250 µM | 250 µM and > 1250 µM |  | > 79 µM | > 1250 µM | > 1250 µM
8 | Cn1ncc2c(Nc3ccc(Br)cc3)nc(Nc3ccc(Br)cc3)nc21 | 4.68 µM | 19.4 µM | 2.03 µM | 4.32 µM | 1.59 µM | 4.3 µM | 1.76 µM | 3.48 µM | 3.32 µM | 14.7 µM | 3.63 µM | 16.2 µM | 4.15 µM | 63.5 µM | 2.4 µM | 8.87 µM | 1.69 µM | 5.21 µM | 2.93 µM | 8.97 µM
9 | CN(C(=O)C1CCCCC1)c1ccccc1I(=O)=O | 42.4 µM | > 100 µM | 33.8 µM | > 100 µM | 12.5 µM | 27.4 µM | 37.8 µM | > 100 µM | 14.6 µM | 30.9 µM | 45.2 µM | > 100 µM | 74.8 µM | > 100 µM | 12.9 µM | 33.7 µM | 13.7 µM | 36.1 µM | 20 µM | 44.6 µM
10 | COc1ccc(OC)c(/C=C/[N+](=O)[O-])c1 |  | 11.9 µM |  | 6.33 µM and 7.41 µM | 2.08 µM | 6.96 µM and 14.8 µM | 2.6 µM and 13.3 µM | 7.27 µM and 27.4 µM | 2.19 µM and 5.66 µM | 7.26 µM and 11 µM |  | 13.6 µM and 8.12 µM | 3.31 µM | 17.3 µM and 15.2 µM | 1.74 µM | 4.42 µM and 4.74 µM | 0.467 µM and 0.865 µM | 1.85 µM and 3.92 µM |  | 16.9 µM and 5.39 µM
11 | COc1ccc(-c2cc3c4c(nc5ccccc5c4c2)CC(c2cc(OC)c(OC)c(OC)c2)O3)cc1 (centres undefined) | 2.92 µM | 31.7 µM | 3.07 µM | > 100 µM | 3.37 µM | > 100 µM | 3.78 µM | > 100 µM | 1.32 µM | 3.87 µM | 3.75 µM | 18.5 µM | 2.71 µM | > 100 µM | 3.66 µM | > 100 µM | 2.08 µM | > 100 µM | 2.63 µM | > 100 µM
